Converted amounts (≈) assume the structure as drawn. Square brackets hold non-standard residues; d marks the D form. Peptide text beside a SMILES is read from it. NMeF = CN[C@@H](Cc1ccccc1)C(=O)O; NMeM = CN[C@@H](CCSC)C(=O)O; NMeA = CN[C@@H](C)C(=O)O; Dap = NC[C@H](N)C(=O)O
Test system: E. coli BW25113
Assay type: cell-based, Escherichia coli
Details: Table 8
Description: Bacterial growth conditions. LB or Mueller Hinton II cation-adjusted broth (MHB II, BBL 212322) was prepared according to manufacturer's instructions and supplemented with arabinose at 0.02% for overnight growth or at indicated concentrations in the description of the figures. Bacterial cultures were grown at 37° C. When appropriate, media was supplemented with kanamycin (50 μg/mL), carbenicillin (50 μg/mL), chloramphenicol (12.5 or 25 μg/mL), hygromycin (200 μg/mL), and/or gentamicin (10 μg/mL).
Peptide sensitivity and MIC assays. Lyophilized peptides (Smartox Biotechnology, CPC Scientific. ABclonal) were solubilized to 10 mM in Tris buffer, pH 8, prior to making a 2-fold dilution series in MHBII cation adjusted broth with highest final assay concentration of 400-800 μM. Bacteria were grown to log phase and added to final OD600˜0.001. The final EDTA concentration was 0.5 mM for E. coli strains and 0.125 mM for USA300. The final volume of 10 μL/well in a 384 well black, clear bottom plate (Corning) was spun <1 min at <250×g and then incubated at 37° C. After 4 h, an equal volume (10 μL) of BacTiter-Glo™ (Promega) was added to each well and luminescence was read after 5 min on an EnVision plate reader (PerkinElmer). To measure the minimal inhibitory concentrations (MICs), bacteria from fresh overnight plates or log phase cultures were diluted with or without EDTA and peptides as described above to final OD600˜0.0002. Plates were incubated at 37° C. for 20 h before measuring OD600 with an EnVision plate reader.

Row | SMILES | MIC E. coli BW25113
1 | CSCC[C@@H](C(=O)N[C@@H](CN)C(=O)N[C@@H](Cc1ccccc1)C(=O)N[C@@H](CCCNC(=N)N)C(=O)N[C@@H](CCCNC(=N)N)C(=O)N[C@@H](Cc1ccccc1)C(=O)N[C@@H](CC(C)C)C(=O)N[C@@H](CCC(=O)O)C(=O)N[C@@H](CCCCN)C(=O)N[C@@H](Cc1c[nH]c2ccccc12)C(=O)NCC(=O)N[C@@H](CC(C)C)C(=O)N[C@@H](CC(C)C)C(=O)N[C@@H](CCCNC(=N)N)C(N)=O)N(C)C(=O)[C@@H]1CCCN1C(=O)[C@H](Cc1ccc(O)cc1)NC(C)=O [compound 95] (Ac-YP[NMeM][Dap]FRRFLEKWGLLR-NH2) | 50.0 µM (≈ 108 µg/mL)
2 | CSCC[C@H](NC(=O)[C@H](CN)NC(=O)[C@H](CCSC)N(C)C(=O)[C@@H]1CCCN1C(=O)[C@H](Cc1ccc(O)cc1)NC(C)=O)C(=O)N[C@@H](CCCNC(=N)N)C(=O)N[C@@H](CCCNC(=N)N)C(=O)N[C@@H](Cc1ccccc1)C(=O)N[C@@H](CC(C)C)C(=O)N[C@@H](CCC(=O)O)C(=O)N[C@@H](CCCCN)C(=O)N[C@@H](Cc1c[nH]c2ccccc12)C(=O)NCC(=O)N[C@@H](CC(C)C)C(=O)N[C@@H](CC(C)C)C(=O)N[C@@H](CCCNC(=N)N)C(N)=O [compound 96] (Ac-YP[NMeM][Dap]MRRFLEKWGLLR-NH2) | 50.0 µM (≈ 107 µg/mL)
3 | CSCC[C@@H](C(=O)N[C@@H](CN)C(=O)N(C)[C@@H](C)C(=O)N[C@@H](CCCNC(=N)N)C(=O)N[C@@H](CCCNC(=N)N)C(=O)N[C@@H](Cc1ccccc1)C(=O)N[C@@H](CC(C)C)C(=O)N[C@@H](CCC(=O)O)C(=O)N[C@@H](CCCCN)C(=O)N[C@@H](Cc1c[nH]c2ccccc12)C(=O)NCC(=O)N[C@@H](CC(C)C)C(=O)N[C@@H](CC(C)C)C(=O)N[C@@H](CCCNC(=N)N)C(N)=O)N(C)C(=O)[C@@H]1CCCN1C(=O)[C@H](Cc1ccc(O)cc1)NC(C)=O [compound 97] (Ac-YP[NMeM][Dap][NMeA]RRFLEKWGLLR-NH2) | 200.0 µM (≈ 418 µg/mL)
4 | CSCC[C@@H](C(=O)N[C@@H](CCCNC(=N)N)C(=O)N[C@@H](CCCNC(=N)N)C(=O)N[C@@H](Cc1ccccc1)C(=O)N[C@@H](CC(C)C)C(=O)N[C@@H](CCC(=O)O)C(=O)N[C@@H](CCCCN)C(=O)N[C@@H](Cc1c[nH]c2ccccc12)C(=O)NCC(=O)N[C@@H](CC(C)C)C(=O)N[C@@H](CC(C)C)C(=O)N[C@@H](CCCNC(=N)N)C(N)=O)N(C)C(=O)[C@H](CN)NC(=O)[C@H](CCSC)N(C)C(=O)[C@@H]1CCCN1C(=O)[C@H](Cc1ccc(O)cc1)NC(C)=O [compound 98] (Ac-YP[NMeM][Dap][NMeM]RRFLEKWGLLR-NH2) | 25.0 µM (≈ 53.8 µg/mL)
5 | CC(=O)N[C@@H](Cc1ccc(O)cc1)C(=O)N1CCC[C@H]1C(=O)N(C)[C@@H](Cc1ccccc1)C(=O)N[C@H](C(=O)N(C)[C@@H](C)C(=O)N[C@@H](CCCNC(=N)N)C(=O)N[C@@H](CCCNC(=N)N)C(=O)N[C@@H](Cc1ccccc1)C(=O)N[C@@H](CC(C)C)C(=O)N[C@@H](CCC(=O)O)C(=O)N[C@@H](CCCCN)C(=O)N[C@@H](Cc1c[nH]c2ccccc12)C(=O)NCC(=O)N[C@@H](CC(C)C)C(=O)N[C@@H](CC(C)C)C(=O)N[C@@H](CCCNC(=N)N)C(N)=O)[C@@H](C)O [compound 99] (Ac-YP[NMeF]T[NMeA]RRFLEKWGLLR-NH2) | 200.0 µM (≈ 425 µg/mL)
6 | CSCC[C@@H](C(=O)N[C@@H](CN)C(=O)N(C)[C@@H](Cc1ccccc1)C(=O)N[C@@H](CCCNC(=N)N)C(=O)N[C@@H](CCCNC(=N)N)C(=O)N[C@@H](Cc1ccccc1)C(=O)N[C@@H](CC(C)C)C(=O)N[C@@H](CCC(=O)O)C(=O)N[C@@H](CCCCN)C(=O)N[C@@H](Cc1c[nH]c2ccccc12)C(=O)NCC(=O)N[C@@H](CC(C)C)C(=O)N[C@@H](CC(C)C)C(=O)N[C@@H](CCCNC(=N)N)C(N)=O)N(C)C(=O)[C@@H]1CCCN1C(=O)[C@H](Cc1ccc(O)cc1)NC(C)=O [compound 100] (Ac-YP[NMeM][Dap][NMeF]RRFLEKWGLLR-NH2) | 25.0 µM (≈ 54.2 µg/mL)
